Measured values published in PMC4297708 (Drug and alcohol dependence, 2014).
“Also recorded” adds a separate entry of the source. Where two headings read alike, the source gives them in different places.

Columns and labels:
[1] = target: T1, dopamine transporter (DAT) (Rattus norvegicus, UniProt P23977); assay: biochemical; conditions: for DA/5-HT Ratio: ratio of release potencies
[2] = system: vesicular monoamine transporter 2 (VMAT2); conditions: measured with Tyramine, ref Partilla et al., 2006, cited from earlier work; for EC50: read-out: VMAT2 Release EC50
mice [3] = conditions: cited from earlier work
CB1Rs = conditions: increased efficacy of CP 55940 in calcium mobilization; ref Navarro et al., 2009; cited from earlier work
[4] = target: T1, dopamine transporter (DAT); assay: DAT uptake inhibition assay; format: biochemical
DAT = conditions: highest dose studied, 56 mg/kg; ref Hiranita et al., 2014; cited from earlier work
rats [5] = conditions: ref Hiranita et al., cited from earlier work; for effect on cocaine self-administration dose-effect curve: rats, 2014
rats [6] = conditions: ref Hiranita et al., 2014; cited from earlier work
mice [7] = conditions: range of behaviorally active doses, ref Carroll et al., 2004; cited from earlier work
rats [8] = conditions: rats trained to discriminate cocaine from saline; ref Carroll et al., 2004; cited from earlier work
sigma receptors = conditions: ref Hiranita et al., 2014; cited from earlier work
SERT [9] = target: T2, SERT (Rattus norvegicus, UniProt P31652); assay: 5-HT release assay in synaptosomes; format: biochemical; conditions: read-out: 5-HT Release EC50; rat brain synaptosomes; mean ± SD, n=3; Table 4
T2 sequence (P31652 whole entry): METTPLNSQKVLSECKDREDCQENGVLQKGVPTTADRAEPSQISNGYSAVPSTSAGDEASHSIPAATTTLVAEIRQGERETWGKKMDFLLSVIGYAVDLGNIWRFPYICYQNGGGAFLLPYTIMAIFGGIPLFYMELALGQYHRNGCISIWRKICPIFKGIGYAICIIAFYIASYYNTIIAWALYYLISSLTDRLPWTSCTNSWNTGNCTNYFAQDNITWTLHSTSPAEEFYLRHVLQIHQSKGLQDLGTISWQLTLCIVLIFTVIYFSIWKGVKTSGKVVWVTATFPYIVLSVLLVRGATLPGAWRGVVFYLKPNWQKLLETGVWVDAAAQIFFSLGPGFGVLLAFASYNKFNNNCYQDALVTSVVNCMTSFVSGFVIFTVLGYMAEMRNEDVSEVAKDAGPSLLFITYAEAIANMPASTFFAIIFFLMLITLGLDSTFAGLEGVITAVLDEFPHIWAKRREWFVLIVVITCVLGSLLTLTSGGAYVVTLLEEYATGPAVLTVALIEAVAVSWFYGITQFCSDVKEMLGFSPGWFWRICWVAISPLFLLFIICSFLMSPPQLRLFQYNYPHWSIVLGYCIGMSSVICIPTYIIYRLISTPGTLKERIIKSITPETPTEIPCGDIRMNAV

rats [10] = assay: In vivo microdialysis in the n. accumbens; conditions: male rats, 1 or 3 mg/kg i.v.; for extracellular (dialysate) DA in n. accumbens: Fig. 7, Fig. 8
rats [11] = assay: Horizontal locomotor activity; format: in vivo; conditions: male rats, 1 or 3 mg/kg i.v.; Fig. 7, Fig. 8
mice [12] = conditions: mice trained to discriminate cocaine (10 mg/kg) from saline; ref Loland et al. 2012; cited from earlier work
[13] = ref Loland et al., 2012; cited from earlier work
human = conditions: humans; ref Dackis et al., 2003; Malcolm et al., 2006; Hart et al., 2008; cited from earlier work
[14] = cited from earlier work
rats [15] = conditions: ref Katz et al., 1999b; cited from earlier work
rats [16] = conditions: ref Rothman et al., 2005; cited from earlier work
[17] = compared to amphetamine; ref Rothman et al., 2005; cited from earlier work
DAT Y335A = conditions: ref Loland et al., 2008; cited from earlier work
[18] = target: T1, dopamine transporter (DAT); conditions: read-out: DAT UI IC50; rat brain synaptosomes; ref Yu et al., 2000; cited from earlier work
SERT [19] = target: T2, SERT; conditions: read-out: 5-HT Release EC50; rat brain synaptosomes; ref Yu et al., 2000; cited from earlier work
[20] = rat brain synaptosomes, % maximal release, Table 3
[21] = read-out: DAT UI IC50, rat brain synaptosomes, mean ± SD, n=3, Table 3
[22] = rat brain synaptosomes, Table 4
[23] = read-out: DA Release EC50, rat brain synaptosomes, mean ± SD, n=3, Table 4
[24] = read-out: DA Release EC50, rat brain synaptosomes, mean ± SD, n=3, Table 3

T1 sequence (P23977 whole entry): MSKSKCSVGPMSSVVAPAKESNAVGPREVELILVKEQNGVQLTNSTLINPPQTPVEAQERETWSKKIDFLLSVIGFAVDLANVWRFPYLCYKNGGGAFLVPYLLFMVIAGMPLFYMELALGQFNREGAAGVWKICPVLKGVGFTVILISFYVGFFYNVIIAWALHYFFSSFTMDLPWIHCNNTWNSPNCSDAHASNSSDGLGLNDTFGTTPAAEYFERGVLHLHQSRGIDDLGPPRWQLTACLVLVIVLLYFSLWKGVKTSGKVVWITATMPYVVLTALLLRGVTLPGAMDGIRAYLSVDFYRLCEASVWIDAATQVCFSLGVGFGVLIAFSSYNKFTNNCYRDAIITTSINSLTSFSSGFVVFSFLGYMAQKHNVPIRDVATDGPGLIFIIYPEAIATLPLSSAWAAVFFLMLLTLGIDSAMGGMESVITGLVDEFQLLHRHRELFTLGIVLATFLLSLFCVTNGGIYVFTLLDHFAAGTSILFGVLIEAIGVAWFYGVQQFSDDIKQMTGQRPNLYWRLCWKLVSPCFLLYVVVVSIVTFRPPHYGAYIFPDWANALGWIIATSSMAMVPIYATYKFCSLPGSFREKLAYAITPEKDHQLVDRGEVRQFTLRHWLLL

CC1NCCOC1c1ccccc1 (single isomer, unassigned; (+)) [(+)-Phenmetrazine]
EC50 [1]: 87.4 ± 7.8 nM | VMAT2 Release EC50 (μM) [2]: completely inactive | EC50 [2]: > 100000 nM

CCNC(C)Cc1ccccc1 (stereo not drawn) [PAL-99]
DA Release EMAX [1, 20]: 111 ± 13%

CCCCN1[C@@H]2CC[C@H]1CC(OC(c1ccc(F)cc1)c1ccc(F)cc1)C2 (stereo partly drawn) [JHW 007]
effect on cocaine-induced locomotor stimulation (mice [3]; CB1R wild-type and knockout mice, co-injection, ref Desai et al., 2014): significantly blunted the locomotor stimulant effects of cocaine | effect on cocaine-induced locomotor stimulation (mice [3]; DA D2R knockout and wild-type mice, ref Desai et al., 2014): blocked the stimulant effects of cocaine equally in both knockout and wild-type mice | modulation of CB1Rs (CB1Rs): positive-allosteric modulation of CB1Rs

CNC(C)Cc1ccc2c(c1)OCO2 (stereo not drawn) [MDMA]
DA Release EMAX [1]: 103 ± 2% | EC50 ([1]; read-out: DA Release EC50): 108 ± 10 nM

CCCC(C(=O)c1ccc2c(c1)OCO2)N1CCCC1 (stereo not drawn) [MDPV]
IC50 [4, 21]: 4.1 ± 0.06 nM

Cc1ccc([C@H]2C[C@@H]3CC[C@H]([C@H]2c2cc(-c4ccc(Cl)cc4)no2)N3C)cc1 [RTI-371, 3β-(4-methylphenyl)-2β-[3-(4-chlorophenyl)isoxazol-5-yl]tropane]
rate of displacement of [125I]RTI-121 (DAT): 0.320 %/min | effect on cocaine self-administration dose-effect curve (rats [5]): dose-related decreases in the maximum self-administration of cocaine | self-administration of the compound versus vehicle (rats [6]): not self-administered at rates above those obtained with vehicle | locomotor activity (mice [7]): failed to stimulate locomotor activity | effect on cocaine-induced locomotor stimulation (mice [3]; preliminary report, ref Navarro et al., 2009): blocked cocaine-induced locomotor stimulation | substitution for cocaine (drug discrimination) (rats [8]): did not substitute | modulation of CB1Rs (CB1Rs): positive-allosteric modulation of CB1Rs | affinity at sigma receptors (sigma receptors): relatively low affinity at sigma receptors

Cc1ccc(CC(C)N)cc1 (stereo not drawn) [PAL-313]
DA/5-HT Ratio [1, 22]: 1.2 | EC50 [1, 23]: 44.1 ± 2.6 nM | EC50 (SERT [9]): 53.4 ± 4.1 nM | extracellular (dialysate) DA in n. accumbens (rats [10]): lowest level of DA release in vivo | extracellular 5-HT in n. accumbens (rats [10]; Fig. 8): highest level of 5-HT release | locomotor stimulation (horizontal locomotor activity) (rats [11]): lowest levels of locomotor stimulation

CC(N)Cc1ccc(F)cc1 (stereo not drawn) [PAL-303]
DA/5-HT Ratio [1, 22]: 18 | EC50 [1, 23]: 51.5 ± 1.7 nM | EC50 (SERT [9]): 939 ± 76 nM

NC(=O)C[S+]([O-])C(c1ccccc1)c1ccccc1 (stereo not drawn) [modafinil]
substitution for cocaine (drug discrimination) (mice [12]): fully substituted for cocaine | DA concentrations in the nucleus accumbens shell [13]: increased DA concentrations in the nucleus accumbens shell, though also to a lesser extent than cocaine | effect on cocaine-induced euphoria (human): blunted cocaine-induced euphoria | locomotor activity ([14]; ref Cao et al., 2010): stimulated locomotor activity, though to a lesser extent than cocaine

CN[C@@H](C)Cc1ccccc1 [Methamphetamine]
EC50 [1]: 24.5 ± 2.1 nM

CN1[C@@H]2CC[C@H]1C[C@@H](OC(=O)C(CO)c1ccccc1)C2 (stereo partly drawn) [atropine]
effect on effects of cocaine in drug discrimination procedures (rats [15]): potentiation of effects of cocaine

CC(N)Cc1cccc(F)c1 (stereo not drawn) [PAL-353]
DA/5-HT Ratio [1, 22]: 80 | EC50 [1, 23]: 24.2 ± 1.1 nM | EC50 (SERT [9]): 1940 ± 202 nM

CNC(C)Cc1ccc2ccccc2c1 (stereo not drawn) [PAL-1046]
DA Release EMAX [1, 20]: 101 ± 3% | EC50 [1, 24]: 10 ± 1 nM

Cc1ccc(N2CCNCC2)cc1 [PAL-233, 4-Methylphenylpiperazine]
IC50 [4, 21]: 9520 ± 436 nM

CN1[C@@H]2C[C@@H](OC(=O)[C@H](CO)c3ccccc3)C[C@H]1[C@@H]1O[C@@H]12 [scopolamine]
effect on effects of cocaine in drug discrimination procedures (rats [15]): potentiation of effects of cocaine

CNC(C)C(=O)c1ccc(C)cc1 (stereo not drawn) [Mephedrone]
EC50 [1]: 49.1 ± 3.1 nM

CC(N)Cc1ccc2ccccc2c1 (stereo not drawn) [PAL-287]
EC50 [2]: 1250 ± 230 nM | DA release in vivo (microdialysis) (rats [16]): released much less DA than expected | locomotor stimulant effect ([14]; compared to amphetamine, ref Rothman et al., 2005): weak locomotor stimulant | reinforcing effects [17]: lacked strong reinforcing effects

CC(C)(N)Cc1ccccc1 [Phentermine]
EC50 [1]: 262 ± 21 nM | VMAT2 Release EC50 (μM) [2]: lack VMAT2 activity | EC50 [2]: > 100000 nM

C[C@@H]1CN(CCCn2c3ccccc3c3ccccc32)C[C@H](C)N1 [rimcazole]
effect on cocaine self-administration (rats [5]; 2011): blocked cocaine self-administration

Cc1cccc(N2CCNCC2)c1C [PAL-218, 2,3-Dimethylphenylpiperazine]
DA Release EMAX [1, 20]: 66 ± 1% | EC50 [1, 24]: 1210 ± 118 nM

COC(=O)[C@H]1[C@@H](OC(=O)c2ccccc2)C[C@@H]2CC[C@H]1N2C [cocaine]
loss in potency for Y335A compared with wild-type DAT (DAT Y335A): ~100 fold

CCN[C@@H](C)Cc1ccc2ccccc2c1 [PAL-1045]
DA Release EMAX [1, 20]: 78 ± 5% | EC50 [1, 24]: 46 ± 11 nM | extracellular (dialysate) DA in n. accumbens (rats [10]): extracellular DA concentrations increase; also recorded: magnitude of effect on dialysate DA is lower than that of a full efficacy releaser | locomotor stimulation (horizontal locomotor activity) (rats [11]): smaller when compared to the full efficacy releaser

CCCNC(C)C(=O)c1ccccc1 (stereo not drawn) [PAL-359]
DA UI IC50 (nM) ([4]; rat brain synaptosomes, mean ± SD, n=3 in triplicate, Table 1): inactive

Cc1ccc(-c2cc([C@@H]3C4CCC(C[C@@H]3c3ccc(Cl)cc3)N4C)on2)cc1 (stereo partly drawn) [RTI-336]
effect on cocaine self-administration dose-effect curve (rats [5]): dose-related leftward shifts in the cocaine self-administration dose effect curve | self-administration of the compound versus vehicle (rats [6]): self-administered at levels greater than vehicle | substitution for cocaine (drug discrimination) (rats [8]): fully substitutes | affinity at sigma receptors (sigma receptors): relatively low affinity at sigma receptors

Cc1cccc(CC(C)N)c1 (stereo not drawn) [PAL-314]
DA/5-HT Ratio [1, 22]: 6.5 | EC50 [1, 23]: 33.3 ± 1.3 nM | EC50 (SERT [9]): 218 ± 22 nM

CCNC(C)C(=O)c1ccccc1 (stereo not drawn) [N-Ethylpropion]
IC50 [18]: 1010 ± 80 nM | EC50 (SERT [19]): 2120 ± 98 nM

Cc1ccccc1N1CCNCC1 [PAL-169, 2-Methylphenylpiperazine]
DA Release EMAX [1, 20]: 90 ± 1% | EC50 [1, 24]: 296 ± 20 nM

c1ccc(CN2CCNCC2)cc1 [Benzylpiperazine]
EC50 ([1]; read-out: DAT Release EC50, mean ± SD, n=3, Table 5): 307 ± 19 nM | VMAT2 Release EC50 (μM) [2]: lack VMAT2 activity | EC50 [2]: > 100000 nM

CC(NC(C)(C)C)C(=O)c1cccc(Cl)c1 (stereo not drawn) [Bupropion]
IC50 [4]: 658 ± 178 nM

NCCc1ccccc1 [Phenethylamine]
EC50 [1]: 39.5 ± 1.8 nM

Fc1ccc(C(O[C@H]2C[C@H]3CC[C@@H](C2)N3CC2CC2)c2ccc(F)cc2)cc1 [JHW013]
locomotor activity ([14]; fast-onset BZT analogs, ref Li et al., 2011): stimulant effects that were substantially reduced compared to those of cocaine
